Measurements reported in patent US20070185215A1, “Pharmaceutical composition containing obovatol as an active ingredient for the prevention and treatment of neurodegenerative diseases” (priority 2006, published 2007).

Key:
[1] = test system: BV-2 murine microglial cell line; assay: Inhibition of nitric oxide production in LPS-activated microglia (Griess reaction); format: cell-based; settings: BV-2 cells, 100 ng/ml LPS, 24 hours
Description: (§1) The BV-2 murine microglial cell line, obtained from Prof. Eui-Ju, Choi, School of Life Sciences and Technology in Korea University, Korea, was treated with 100 ng/ml of LPS (lipopolysaccharide), known to activate microglial cells, in the presence of 1 μg/ml or 10 μg/ml obovatol for 24 hours, and then the nitric oxides secreted into the culture media were quantitatively analyzed using a Griess reaction method to determine the activity of the microglia. In detail, 50 μl of the microglial culture medium was reacted with 50 μl of the Griess reagent [1% sulfanilamide/0.1% naphthylethylene diamine dihydrochloride/2% phosphoric acid] at room temperature for 10 min, followed by measuring absorbance at 540 nm with the aid of a microplate reader (Anthos Labtec Instruments GmbH Salzburg, Austria). For comparison, magnolol, known to have a neuroprotective effect, was also tested in the same manner. Using NaNO2 as a standard material, inhibition rates of the test materials were calculated for the production of nitric oxides. Also, MTT assay was conducted to measure cytotoxicity in order to determine whether or not the inhibitory activity against microglial activity was attributed to cytotoxicity.

[2] = Solubility (physical and chemical properties); format: physicochemical
SD rats = assay: Acute oral toxicity assay in rats; format: in vivo
Description: Using six-week-old specific pathogen-free (SPF) SD rats, an acute toxicity assay was conducted. The rats were divided into groups of two rats. After being dissolved in injectable saline, the obovatol, obtained in Example 1, was orally administered once in a dosage of 1 g/kg/ml to the rat groups. Afterwards, observations were made of the death, clinical symptoms, and weight changes of the animals, and serological and serobiochemical assays were conducted. Also, an autopsy was carried out to examine abnormalities of the abdominal and thoracic organs with the naked eye.

[3] = test system: BV-2 murine microglial cell line; assay: MTT assay for cytotoxicity; format: cell-based; settings: concentrations as high as 30˜50 μg/ml
Description: as §1

Row | Molecule | Inhibition Rates (%) of Nitric Oxide Production ([1]; 1 μg/ml compound) | Inhibition Rates (%) of Nitric Oxide Production ([1]; 10 μg/ml compound) | Solubility ([2]; Alcohol, DMSO) | Solubility ([2]; Hexane, water) | Noticeable clinical symptoms or death (SD rats; SD rats, oral, once, 1 g/kg/ml) | Toxicity in weight change, serological assay, serobiochemical assay, autopsy observations (SD rats; SD rats, oral, once, 1 g/kg/ml) | Dose causing no toxic effects (SD rats; rat, in vivo, po) | Cytotoxicity as measured by MTT assay [3] | inhibition at 1 µg/mL ([1]; Mus musculus, 1 μg/ml compound, read-out: Inhibition Rates (%) of Nitric Oxide Production) | inhibition at 10 µg/mL ([1]; Mus musculus, 10 μg/ml compound, read-out: Inhibition Rates (%) of Nitric Oxide Production)
1 | obovatol | 29.8% | 83.3% | Soluble | Insoluble | None of the animals | not observed | ≤ 500 mg/kg | did not exhibit cytotoxicity | – | –
2 | C=CCc1ccc(O)c(-c2cc(CC=C)ccc2O)c1 [Magnolol, magnolol, reference compound] | – | – | – | – | – | – | – | – | 13.1% | 59%
